Experimental data: patent US20260325608A1, “PEPTIDES FOR USE IN THE TREATMENT OF SARCOMA” (PHARIS BIOTEC GMBH, priority 2023, published 2026)
One block for each compound: values may come before it. No end group written: not given here.

Assays:
childhood sarcomas = conditions: in vivo; cited from earlier work
osteosarcoma = assay: Compassionate use treatment of an osteosarcoma patient with intranasal peptide (Example 5); type: in vivo; conditions: three times a day
Protocol: A patient suffering from osteosarcoma was treated under the terms of compassionate use.
The peptide IVRYTKKVPQVS (SEQ ID NO: 21) was provided in a citrate/bicarbonate buffer (Pharmacopoeia Europaea, Ph. Eur.), in a concentration of 1 mg/mL (1 mg of the peptide in 1 mL of the buffer). This composition was administered intranasally as a nasal spray. The nasal spray was administered three times a day (morning, noon, evening), two strokes into each nasal cavity, for six weeks.
The course of the disease/clinical picture of the patient was monitored via an immune panel measurement, once a week. In blood count measurements, the numbers of erythrocytes, thrombocytes, etc. were determined.

[1] = Isoelectric point of the peptide; type: physicochemical

Compound: O=P1(N(CCCl)CCCl)NCCCO1 (stereo not shown) [cyclophosphamide]
anti-tumor efficacy (childhood sarcomas): good anti-tumor efficacy

Compound: IVRYTKKVPQVS [SEQ ID NO: 21]
side effects (osteosarcoma; 1 mg/mL nasal spray, six weeks): no side effects were observed
regression of the tumor (MRT measurements) (osteosarcoma; 1 mg/mL nasal spray, six weeks, especially in the area of the spine and the vertebral holes): regression of the tumor
blood picture (osteosarcoma; after four weeks of treatment, 1 mg/mL nasal spray in citrate/bicarbonate buffer, two strokes into each nasal cavity): normalized
pain (osteosarcoma; after six weeks of treatment, 1 mg/mL nasal spray, severe pain before start): pain-free
mobility of the patient (osteosarcoma; during six weeks of treatment, 1 mg/mL nasal spray, patient was unable to move before start): restored

isoelectric point (pI) [1]: 10.3
Compound: LVRYTKKVPQVSTPTL [ALB408-423, LVRYTKKVPQVSTPTL]
